Where “and” joins values, the source holds several entries; their conditions need not be identical. Equal values may be shown once.
How the values were obtained:
[1] = system: Trypanosoma brucei brucei; assay: microbe, parasite or virus in culture; assay type: functional, organism-based, STIB 795
Description: DNDI: Inhibition of Human African Trypanosomiasis (HAT), STIB 795, in vitro

[2] = DNDI: Cytotoxicity against human MRC-5 lung fibroblast cells.; details: IC50

| SMILES | IC50 ([1]; Trypanosoma brucei, STIB 795) [µM] | IC50 [2] [µM] | IC50 [1] |
| --- | --- | --- | --- |
| CN(C)CCCNc1nc(-c2ccc(Cl)cc2)nc2ccccc12 | 3.74 | > 20.8 |  |
| Cc1conc1NC(c1cccs1)c1ccc2cccnc2c1O (configuration not stated) | 5.74 | > 20.8 |  |
| COc1ccc(C(=O)O/N=C(\N)c2ccccc2Cl)cc1OC | 0.686 | > 20.8 |  |
| COc1ccc(-c2cc(-c3ccccc3)c(C#N)c([S+](C)[O-])n2)cc1 (configuration not stated) | 0.206 | > 41.7 |  |
| Cc1c(-c2cccc(NC(=O)c3cccs3)c2)nc2ncccn12 | 5.18 | > 41.7 |  |
| CN1CCc2nc3sc(C(=O)c4ccc(F)cc4)c(N)c3cc2C1 | 6.35 | > 41.7 |  |
| CC1CCC2C(=O)N(c3ccc(Cc4ccncc4)cc3)C(=O)C2C1 (configuration not stated) | 5.32 | > 41.7 | 5.4 µM |
| COc1ccc2[nH]c(C)c(CCNCc3cn(C)c4ccccc34)c2c1 | 4.74 | > 20.8 |  |
| Cc1ccccc1Cn1c(=N)n(CC(O)c2ccco2)c2ccccc21 (configuration not stated) | 5.25 | > 20.8 |  |
| COc1ccc(-c2cc3ccccc3n2CC(O)CNCCO)cc1 (configuration not stated) | 5.17 | > 20.8 |  |
| N=c1n(CCc2ccccc2)c2ccccc2n1Cc1ccccc1F | 5.49 | > 20.8 |  |
| COC(=O)c1nc(-c2ccccc2)nc(-c2ccccc2)c1C(=O)OC | 4.78 | > 4.17 |  |
| O=C(N/N=C(\c1ccccc1)c1ccccn1)c1ccccc1Cl | 1.76 | > 4.17 |  |
| COc1ccc(C2=NNc3cccc4c(OC)ccc2c34)cc1OC | 5.58 | > 41.7 | 5.38 µM |
| NCCNCCOC(c1ccc(Cl)cc1)c1ccc(Cl)cc1 | 0.239 | 5.61 |  |
| c1ccc2cc3c(NCCCNC4CCCCC4)ccnc3cc2c1 | 0.294 | 4.93 |  |
| COC(=O)C(NC(=O)c1c(Cl)sc2nnsc12)C(C)C (configuration not stated) | 4.12 | > 4.17 |  |
| Cc1cc(OCC(O)CNC(C)c2ccccc2)cc(C)c1Cl (configuration not stated) | 4.73 | > 41.7 |  |
| Oc1c(C(Nc2nccs2)c2ccccn2)ccc2cccnc12 (configuration not stated) | 0.973 | 4.16 |  |
| NCCCCNCCOC(c1ccc(F)cc1)c1ccc(F)cc1 | 2.6 | > 20.8 |  |
| CC1CCN(Cc2cc(Br)c(O)c3ncccc23)CC1 | 1.63 | 5.36 |  |
| COc1ccc2c(-c3ccccc3)cc(NCCCN(C)C)nc2c1 | 3.67 | > 20.8 |  |
| CN1CCN(Cc2cc(Br)c3cccnc3c2O)CC1 | 5.07 | > 4.17 |  |
| CC(C)CC(=O)NC(=C(Cl)Cl)S(=O)(=O)c1ccccc1 | 5.33 | > 4.17 |  |
| COc1ccc(C)cc1/N=N/c1ccc(O)c2nc(/C=N/O)ccc12 | 2.37 | > 20.8 |  |

| SMILES | IC50 ([1]; Trypanosoma brucei, STIB 795) [µM] | IC50 [2] [µM] | IC50 [1] |
| --- | --- | --- | --- |
| O=C(N/N=C/c1cc2c3c(c1O)CCCN3CCC2)c1ccncc1 | 0.288 | > 0.42 |  |
| CCc1nnc(NC(=O)c2cc3ccc4ccc(C)nc4c3[nH]2)s1 | 0.494 | > 41.7 |  |
| C=CCn1c(=N)n(CC(O)COc2ccccc2C)c2ccccc21 (configuration not stated) | 0.72 | > 20.8 |  |
| CCCC(=O)NC(c1cccc(F)c1)c1ccc2cccnc2c1O (configuration not stated) | 7.07 | > 20.8 |  |
| CC(C)NCC(O)CNc1cccc2c1C(=O)c1ccccc1C2=O (configuration not stated) | 3.42 | > 4.17 |  |
| O=C1CC(n2nnn(-c3ccccc3Cl)c2=S)C2COC1O2 (configuration not stated) | 4.6 | > 41.7 |  |
| O=S1(=O)CCC(N2COc3c(cc(Cl)c4cccnc34)C2)C1 (configuration not stated) | 5.09 | > 4.17 |  |
| CN1C/C(=C/c2ccc(C#N)cc2)C(=O)/C(=C/c2ccc(C#N)cc2)C1 | 0.366 | > 20.8 |  |
| CC(C)c1ccc(OCc2ccc(C(=O)NCCN(C)C)cc2)cc1 | 5.86 | > 20.8 |  |
| Clc1cccc(CNC2=Nc3ccccc3NC23CCNCC3)c1 | 1.2 | 9.14 |  |
| Cc1ncc(CO)c(/C=N/NC(=O)c2ccc(C(C)(C)C)cc2)c1O | 4.26 | 6.25 |  |
| CC(C)NCC(O)COc1cccc2c(=O)c3ccccc3sc12 (configuration not stated) | 5.46 | > 20.8 |  |
| c1ccc(Cn2s/c(=N\c3ccccc3)nc2-c2ccccc2)cc1 | 1.38 | > 20.8 |  |
| CN(/C=C/C=C/C=C/C1=[N+](C)c2ccccc2C1(C)C)c1ccccc1 | 1.97 | > 20.8 |  |
| Clc1ccc(C[n+]2cc(-c3ccccc3)n3c2CCC3)c(Cl)c1 | 5.23 | > 41.7 |  |
| COc1ccccc1C/C(N)=N/OC(=O)c1ccc(OC)c(OC)c1 | 0.558 | > 4.17 |  |
| COc1cc(C(=O)N/N=C(/C)c2ccccc2O)cc(OC)c1OC | 4.45 | > 4.17 |  |
| CC(=O)O[C@H]1CCC2C3CCC4=CC(=O)CC[C@]4(C)C3C(=O)C[C@@]21C (some centres not stated) | 0.39 | 6.4 |  |
| CN1CCN(C2Cc3ccc(F)cc3Sc3ccc(O)cc32)CC1 (configuration not stated) | 2.61 | > 41.7 |  |
| O=C(c1ccc(F)cc1)C(CSc1ccc(F)cc1)n1cncn1 (configuration not stated) | 4.92 | > 41.7 |  |
| Cc1cc(C)nc(NC(c2ccco2)c2ccc3cccnc3c2O)n1 (configuration not stated) | 5.39 | > 41.7 |  |
| CCCOc1ccc(C(=O)Nc2ccc(Cc3ccncc3)cc2)cc1 | 1.23 | 4.61 |  |
| O=C(CN1CCN(c2ccc(Cl)cc2)CC1)c1ccc(O)c(O)c1 | 3.04 | > 41.7 |  |
| O=C(CC(SCc1ccco1)c1ccc(Cl)cc1)c1ccco1 (configuration not stated) |  | > 41.7 | 5.16 µM and > 10.4 µM |
| CC1(C)CC(NC2=C(Cl)C(=O)c3ccccc3C2=O)CC(C)(C)N1 | 1.79 | 5.07 |  |

| SMILES | IC50 ([1]; Trypanosoma brucei, STIB 795) [µM] | IC50 [2] [µM] | IC50 [1] |
| --- | --- | --- | --- |
| CN(C)CCCNc1nn2c(=O)c3ccccc3nc2c2ccccc12 | 5.39 | > 4.17 |  |
| CCCCc1ccc(NC(=S)NC2CC(C)(C)NC(C)(C)C2)cc1 | 2.74 | > 20.8 |  |
| CN(C)CCCC1c2ccccc2Sc2ccc(Cl)cc2C1O (configuration not stated) | 5.87 | > 20.8 |  |
| O=C(CSc1cccc2cccnc12)c1ccc(Cl)cc1Cl | 1.4 | > 41.7 |  |
| O=C(NCCc1nc(-c2ccccc2)cs1)C1(c2ccccc2)CC1 | 5.81 | > 41.7 | 4.88 µM |
| COc1ccc(C(=O)O/N=C(\N)Cc2ccc(Cl)cc2)c(OC)c1 | 0.104 | > 20.8 |  |
| CCOC(=O)C1CCCN(Cc2cc(Cl)c3cccnc3c2O)C1 (configuration not stated) | 5.09 | > 4.17 |  |
| CC1(C)CC(=O)C/C(=N\NC(=O)c2sc3ccccc3c2Cl)C1 | 2.2 | > 41.7 |  |
| COC(=O)c1ccccc1OCCCON1C(N)=NC(N)=NC1(C)C | 0.351 | > 0.42 |  |
| C=CCn1c(-c2cccs2)nn(C2CC(=O)C3OCC2O3)c1=S (configuration not stated) | 4.75 | > 20.8 | 4.4 µM |
| CCN(CC)c1ccc(/C=N/NC(=O)c2nn(C)cc2Cl)c(O)c1 | 1.44 | > 41.7 |  |
| Clc1ccc(C(OCC2CCCCN2)c2ccc(Cl)cc2)cc1 (configuration not stated) | 2.78 | > 4.17 |  |
| Cc1nc2sccn2c1C(=O)N/N=C/c1c(O)ccc2ccccc12 | 1.53 | > 4.17 |  |
| CCOc1ccc(C2=CC(C(C(C)=O)C(C)=O)c3ccccc3O2)cc1 (configuration not stated) | 4.42 | > 41.7 |  |
| COc1cc2nc(NC3CCCc4ccccc43)nc(N)c2cc1OC (configuration not stated) | 4.75 | > 4.17 |  |
| CCC1CCCCN1S(=O)(=O)c1ccc(-c2ccno2)cc1OC (configuration not stated) | 2.73 | > 41.7 |  |
| CC(=O)NC1=C(Br)C(=O)c2cccc(NC(C)=O)c2C1=O | 1.15 | 7.49 |  |
| Oc1c(C(Nc2nccs2)c2ccc(F)cc2)ccc2cccnc12 (configuration not stated) |  | > 20.8 | 2.37 µM and > 10.4 µM |
| NC1=NC(CCc2ccccc2)N(OCCCc2ccccc2)C(N)=N1 (configuration not stated) | ≤ 2.78 | > 4.17 |  |
| CC(NCCC(c1ccccc1)C1CCOC(C)(C)C1)c1ccccc1 (configuration not stated) | 4.93 | > 41.7 |  |
| CC(C)(C)n1ncc(SC/C(=N\O)c2ccccc2)c(Cl)c1=O | 2.37 | > 41.7 |  |
| Cc1[nH]c2ccc(OC(F)(F)F)cc2c1CCNCC1CC=CCC1 (configuration not stated) | 2.89 | 7.85 |  |
| O=C(CC(Nc1ccc2ccccc2c1)c1ccncc1)c1cccnc1 (configuration not stated) | 0.827 | > 41.7 |  |
| COc1ccc(C(CC(=O)c2ccncc2)SCc2ccco2)cc1 (configuration not stated) | 4.3 | > 41.7 |  |

Reference: ChEMBL document CHEMBL2094269, “WEHI/Eskitis Trypanosoma b. brucei screening data”
